For this assay, the target named is T1, acetylcholine muscarinic M1 receptor (CHOnfat/hM1 cells) (Homo sapiens, UniProt P11229).
T1 construct: expressed in transfected cells; host or cells: CHOnfat cells (CHO; also called CHOK1/hM1)
T1 sequence (P11229 1-460): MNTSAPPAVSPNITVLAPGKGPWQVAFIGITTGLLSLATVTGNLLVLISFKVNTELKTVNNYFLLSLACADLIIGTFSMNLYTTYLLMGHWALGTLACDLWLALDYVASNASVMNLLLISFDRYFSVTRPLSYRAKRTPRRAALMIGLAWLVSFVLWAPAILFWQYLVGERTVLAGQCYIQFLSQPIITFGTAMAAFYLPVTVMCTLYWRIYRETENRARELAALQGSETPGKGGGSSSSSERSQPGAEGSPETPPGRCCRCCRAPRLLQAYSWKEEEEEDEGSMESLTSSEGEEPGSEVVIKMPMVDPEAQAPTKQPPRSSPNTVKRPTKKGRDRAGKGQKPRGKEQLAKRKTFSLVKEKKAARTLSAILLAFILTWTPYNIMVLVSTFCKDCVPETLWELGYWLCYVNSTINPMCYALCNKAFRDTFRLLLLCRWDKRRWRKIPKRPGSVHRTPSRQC
The assay can be described thus: FLIPR intracellular calcium assay for M1 positive allosteric modulator activity (acetylcholine EC20, 3 nM). It counts as cell-based. The conditions noted are these: 4 min preincubation, then EC20 acetylcholine (3 nM final), FLIPR Ca2+ readout, read-out: IP Value (inflection point). The procedure: The assay studies the effect of one or several concentrations of test compounds on basal or acetylcholine-stimulated. Ca^2+ levels using FLJPR.
Compounds are prepared and subjected to a preincubation period of 4 min. Thereafter, a single EC20 concentration of acetylcholine is added to each well (3 nM final). The intracellular Ca^2+ level of each sample is measured and compared to an acetylcholine control to determine any modulatory activity.
Cells: CHOnfat/hM1, hM2, hM3 or hM4 cells are plated 24 hr before the assay at a density of 18,000 cells/well (100 μL) in a 384 well plate. CHOnfat/hM1 and CHOnfat/hM3 Growth Medium: 90% DMEM (Hi Glucose); 10% HI FBS; 2 mM L-glutamine; 0.1 mM NEAA; Pen-Strep; and 1 mg/ml Geneticin, are added. For M2Gqi5CHOnfat and M4Gqi5CHOnfat cells, an additional 600 ug/ml hygromycin is added.
Equipment: 384 well plate, 120 μL addition plate; 96-well Whatman 2 ml Uniplate Incubator, 37° C., 5% CO2; Skatron EMBLA-384 Plate Washer; Multimek Pipetting System; Genesis Freedom 200 System; Mosquito System; Temo Nanoliter Pipetting System; and FLIPR^384 Fluorometric Imaging Plate Reader System are used.
Buffers. Assay Buffer: Hanks Balanced Salt Solution, with 20 mM Hepes, 2.5 mM Probenecid (Sigma P-8761) first dissolved in 1 N NaOH, 1% Bovine Serum Albumin (Sigma A-9647). Dye Loading Buffer: Assay Buffer plus 1% Fetal Bovine Serum and Fluo-4AM/Pluronic Acid Mixture. 2 mM Fluo-4AM ester stock in DMSO (Molecular Probes F-14202) Concentration of 2 μM in buffer for a final concentration of 1 μM in Assay. 20% Pluronic Acid Solution stock, with concentration of 0.04% in Buffer, 0.02% in Assay.
65 μL of 2 mM Fluo-4AM are mixed with 130 μL of 20% Pluronic Acid. The resulting solution and 650 μL FBS is added to the assay buffer for a total volume of 65 mL. Positive Controls: 4-Br-A23187: 10 mM in DMSO; final concentration 10 μM. Acetylcholine: 10 mM in water, working stock at both 20 μM and 30 μM in assay buffer, final concentration of 10 μM. This is used to check the maximum stimulation of the CHOK1/hM1 cells, 20 μM (2×) acetylcholine is added in the preincubation part of the assay, and the 30 μM (3×) stock is added in the second part. (EC20) Acetylcholine: 10 mM in water, working stock of 9 nM (3×), and final concentration in assay is 3 nM. This is used after the preincubation with test compounds. Addition of the EC20 Acetylcholine to each well with a test compound will ascertain any modulator activity. 24 wells contain 3 nM Acetylcholine alone as a control.
Determining Activity of Putative Compounds:
Screening Plate Compounds are titrated in 96-well plates (columns 2-11), 100% DMSO, started at a concentration of 15 mM (150× stock concentration), and 3-fold serial dilutions using Genesis Freedom200 System. Four 96-well plates are combined into a 384-well plate using Mosquito Nanoliter Pipetting System by transferring 1 μl of serial diluted compounds to each well, and 1 mM acetylcholine (100× stock concentration) were added as a control. Using Temo, 49 μl assay buffer is added to each well of the 384-well plate right before assay.
In a 96-well Whatman 2 ml Uniplate, 9 nM Acetylcholine (3×) is pipetted into wells corresponding to the screening compounds, and into control wells. The 30 μM acetylcholine control (3×) is added into control wells, and the 3× agonist plate is transferred into a 384 well plate.
Cells are washed three times with 100 μL of buffer, leaving 30 μL of buffer in each well. Using Multimek, 30 μL of Dye Loading Buffer is added into each well and incubated at 37° C., 5% CO2 for up to one hr.
After 60 min, the cells are washed three times with 100 μL of buffer, leaving 30 μL of buffer in each well. The cell plate, screening plate, and agonist addition plates are placed on the platform in the FLIPR and the door closed. A signal test to check background fluorescence and basal fluorescence signal is performed. Laser intensity is adjusted if necessary. […]
On the technique in general: Calcium assays in cells follow changes in intracellular calcium, usually with a dye or a luminescent sensor.

Here are results for 7 compounds from patent US8664234B2, “Dihydrobenzoquinazolinone M1 receptor positive allosteric modulators” (Merck Sharp & Dohme Corp., priority 2010, dated 2014).

Take `CN1CN([C@H]2CCOC[C@@H]2O)C(=O)c2cc(Cc3ccnc(C(F)F)c3)c3ccccc3c21` [Example 7, 1,5-anhydro-2,3-dideoxy-3-[6-{[2-(difluoromethyl)pyridin-4-yl]methyl}-1-methyl-4-oxo-1,4-dihydrobenzo[h]quinazolin-3(2H)-yl]-L-threo-pentitol]: the EC50 was 2.6 nM.
For `Cn1ccc2c(Cc3cc4c(c5ccccc35)NCN([C@H]3CCOC[C@@H]3O)C4=O)cccc21` [Example 1, 1,5-Anhydro-2,3-dideoxy-3-{6-[(1-methyl-1H-indol-4-yl)methyl]-4-oxo-1,4-dihydrobenzo[h]quinazolin-3 (2H)-yl}-L-threo-pentitol], the EC50 amounted to 15 nM.
Under `CN1CN([C@H]2CCOC[C@@H]2O)C(=O)c2cc(Cc3ccnc(CF)c3)c3ccccc3c21` [Example 6, 1,5-Anhydro-2,3-dideoxy-3-[6-{[2-(fluoromethyl)pyridin-4-yl]methyl}-1-methyl-4-oxo-1,4-dihydrobenzo[h]quinazolin-3 (2H)-yl]-L-threo-pentitol] stands 2.7 nM; under `CCCN1CN([C@H]2CCCC[C@@H]2O)C(=O)c2cc(Cc3ccc(C)nc3)c3ccccc3c21` [Example 5, 3-[(1S,2S)-2-Hydroxycyclohexyl]-6-[(6-methylpyridin-3-yl)methyl]-1-propyl-2,3-dihydrobenzo[h]quinazolin-4(1H)-one], 1170 nM.
In the case of `Cc1ccc(Cc2cc3c(c4ccccc24)N(C)CN([C@H]2CCCC[C@@H]2O)C3=O)cn1` [Example 4, 3-[(1S,2S)-2-Hydroxycyclohexyl]-1-methyl-6-[(6-methylpyridin-3-yl)methyl]-2,3-dihydrobenzo[h]quinazolin-4(1H)-one], the EC50 amounted to 4 nM.
To `CN1CN([C@H]2CCOC[C@@H]2O)C(=O)c2cc(Cc3ccc(Cl)nc3)c3ccccc3c21` [Example 2, 1,5-Anhydro-3-{6-[(6-chloropyridin-3-yl)methyl]-1-methyl-4-oxo-1,4-dihydrobenzo[h]quinazolin-3(2H)-yl}-2,3-dideoxy-L-threo-pentitol] belongs 6.3 nM; to `CSc1ccc(Cc2cc3c(c4ccccc24)NCN([C@H]2CCOC[C@@H]2O)C3=O)cn1` [Example 3, 1,5-Anhydro-2,3-dideoxy-3-[6-{[6-(methylsulfanyl)pyridin-3-yl]methyl}-4-oxo-1,4-dihydrobenzo[h]quinazolin-3(2H)-yl]-L-threo-pentitol], 11.5 nM.
